{"source": "paper PMC10507154", "about": "(iScience, 2023)", "key": {"SquF (MaSquF) [1]": {"target": "T1, SquF (MaSquF) (Marinobacterium aestuarii, UniProt A0A1A9EZ66)", "T1 sequence (A0A1A9EZ66 1-300)": "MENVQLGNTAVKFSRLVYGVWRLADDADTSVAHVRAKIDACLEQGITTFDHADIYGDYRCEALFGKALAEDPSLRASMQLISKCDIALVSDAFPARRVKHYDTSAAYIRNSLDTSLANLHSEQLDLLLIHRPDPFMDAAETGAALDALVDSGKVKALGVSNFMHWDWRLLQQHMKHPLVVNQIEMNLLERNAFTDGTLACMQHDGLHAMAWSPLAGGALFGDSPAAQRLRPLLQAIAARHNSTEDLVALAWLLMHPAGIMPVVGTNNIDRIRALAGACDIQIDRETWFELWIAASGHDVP", "assay": "LC-MS of glucose", "format": "biochemical", "conditions": "0.5 mM NADPH, 6-dehydroglucose generated from SQ by SqoD, RT"}, "SquF (MaSquF) [2]": {"target": "T1, SquF (MaSquF)", "assay": "DNPH derivatization and LC-MS of 6-dehydroglucose", "format": "biochemical", "conditions": "10 mM NADP^+, 100 mM glucose, 50 mM CAPSO pH 10.0, RT; reverse reaction"}}}
{"smiles": "NC(=O)C1=CN([C@@H]2O[C@H](COP(=O)(O)OP(=O)(O)OC[C@H]3O[C@@H](n4cnc5c(N)ncnc54)[C@H](OP(=O)(O)O)[C@@H]3O)[C@@H](O)[C@H]2O)C=CC1", "note": "[NADPH]", "values": [{"measurement": "LC-MS of glucose; NADPH consumption", "setting": "SquF (MaSquF) [1]", "result": "Inclusion of SquF and NADPH in the assay followed by LC-MS analysis"}]}
{"smiles": "OC[C@H]1OC(O)[C@H](O)[C@@H](O)[C@@H]1O", "note": "(stereo partly drawn) [D-glucose]", "values": [{"measurement": "DNPH derivatization and LC-MS of 6-dehydroglucose", "setting": "SquF (MaSquF) [2]", "result": "SquF also catalyzed the reverse reaction, oxidation of glucose to 6-dehydoglucose"}]}
